According to patent publication US20250082656A1, “DOSAGE REGIMENS FOR TREATMENT OF DENGUE INFECTION” (Atea Pharmaceuticals, Inc., priority 2022, published 2025):

Columns and labels:
[1] = Plasma stability, human plasma; details: 2 μM, 37° C.
[2] = SD rat plasma
[3] = Plasma PK after single oral dose of AT-752, monkeys; format: in vivo, cynomolgus monkeys; details: monkeys, oral 300 mg/kg or 60 mg/kg
Procedure: Male cynomolgus monkeys were administered 300 mg/kg Compound 2 (AT-752). Blood samples were collected up to 24 hrs. post dose, plasma separated and analyzed for Compound 1 (AT-281), Compound 3 (AT-551), and Compound 6 (AT-273) by LC-MS/MS. Data are express as mean+/−SD (n=3-5/time point). The x-axis is time post the dose measured in hours and the y-axis is the plasma concentration of the metabolites measured in nanomoles/mL). The experimental procedure is provided in Example 14.
Male non-naïve cynomolgus monkeys (Hainan Jingang Laboratory Animal Co. Ltd., China), at least 2 kg body weight, were individually housed during the study in stainless steel mesh cages, provided ad libitum access to RO water, fed twice daily (except on the day of dosing when they were fed once) with ˜60 g Certified Monkey Diet each feed (Beijing Vital Keao Feed Co., Ltd., Beijing, China) and given daily treats of fresh fruit. They (n=5) were administered a dose of Compound 2 (AT-752) at 300 mg/kg in 40% PEG400, 10% solutol HS15, 50% 100 mM citrate buffer, pH 4.5 (v/v) by oral gavage, and blood samples (˜0.5 mL) were collected at 1, 2, 4, 8, 12 and 24 h post dose. Plasma was separated at each time point for pharmacokinetics, and stored at −70° C. […] Separately, three monkeys were given an oral dose of Compound 2 (AT-752) as powder in capsules at 60 mg/kg ([…] (AT-281) equivalent dose of 55 mg/kg), and blood samples collected at 12, 24 and 48 h post dose.
(§1) Pharmacokinetic measurements for FIGS. 11, 12, 13, 14, and 15 were analyzed using LC-MS/MS according to the protocol described herein. Plasma samples were prepared for MS analysis by adding internal standards and extracting with 20 volumes chilled ACN. After vortex (800 rpm for 10 min) and centrifugation (4,000 rpm, 15 min, 4° C.), the supernatants (25 μL) were diluted with an equal volume of H2O, mixed and spun again. After adding internal standards, the PBMC samples (10^6 cells) were lyzed with 300 μL MeOH/H2O (70:30, v/v) and 40 mM dibutylammonium acetate (DBAA), mixed by vortex and centrifuged (12,000 rpm, 15 min, 4° C.). Aliquots of the supernatants (35 μL) were dried under nitrogen and reconstituted in H2O, then mixed and spun again. […] A binary nonlinear gradient with mobile phases A (0.1% formic acid in water) and B (0.1% formic acid in ACN) were used to elute samples at 0.8 mL/min, with a run time of 5 min. […] A binary nonlinear gradient with mobile phases A (0.001% NHr H2O, 0.18 mM DBAA in H2O) and B (10 mM N,N-dimethyl-hexylamine, 3 mM NH4OAc in ACN/H2O (50.50, v/v)) were used to elute samples at 0.5 mL/min, with a run time of 3 min. Standards in 50% MeOH were used for calibration. […] Internal standards (ISS) as described previously (Good et al., Preclinical evaluation of AT-527, a novel guanosine nucleotide prodrug with potent, pan-genotypic activity against hepatitis C virus. PLos One 15:e02271045) were used to correct for variations in recovery.
(§2) Data analysis of the pharmacokinetic data generated according to Example 21 and presented in FIGS. 11, 12, 13, 14, and 15 was analyzed according to the procedure described herein. Plasma concentrations of Compound 1 (AT-281), Compound 3 (AT-551) and Compound 6 (AT-273) were subjected to non-compartmental pharmacokinetic analysis using Phoenix WinNonlin software (version 6.3 or above, Pharsight, Mountain View, CA). The linear/log trapezoidal rule was applied in obtaining the PK parameters.

[4] = Plasma stability, cynomolgus monkey plasma; details: 2 μM, 37° C.
DENV-2 D2Y98P = format: in vivo, AG129 mice
[5] = Safety study in humans (SAD and MAD cohorts); format: in vivo, human
Procedure: Safety assessments including adverse events, standard clinical laboratory tests, vital sign measurements, electrocardiograms, and physical examinations were performed.

[6] = Pharmacokinetic study in SAD cohorts; format: in vivo, human; details: South/Southeast/East Asian versus mostly Caucasian cohorts, 1000 mg
Procedure: as §1, §2

[7] = MAD 750 mg BID × 4 days plus one dose Day 5, 6 patients
[8] = MAD 750 mg TID × 4 days plus one dose Day 5, 6 patients
[9] = MAD 1000 mg QD × 7 days, 6 patients
[10] = SAD 1000 mg fasting, 6 patients
[11] = SAD 1000 mg, South/Southeast/East Asian origin, 6 patients
[12] = SAD 1500 mg fasting, 6 patients

Q: With `CNc1nc(N)nc2c1ncn2[C@@H]1O[C@H](CO[P@](=O)(N[C@@H](C)C(=O)OC(C)C)Oc2ccccc2)[C@@H](O)[C@@]1(C)F` [Compound 2, isopropyl ((R)-(((2R,3R,4R,5R)-5-(2-amino-6-(methylamino)-9H-purin-9-yl)-4-fluoro-3-hydroxy-4-methyltetrahydrofuran-2-yl)methoxy)(phenoxy)phosphoryl)-L-alaninate] as the compound, how does the “% of starting concentration remained after 120 min of incubation” value [1] read?
A: The value was 93.5%.

Q: And the “drug remaining at the first time point (10 min of incubation)” value [2]?
A: The value was “no drug remaining”.

Q: What about the “unusual or adverse clinical signs” value [3] of the same compound?
A: Its value is “no such signs noted”.

Q: What about the “% of starting concentration remained after 120 min of incubation” value [4] of the same compound?
A: Its value is 98.2%.

Q: And the “health scores versus vehicle control group” value (DENV-2 D2Y98P; Day 4 to Day 9 pi, p<0.001 by t-test)?
A: Its value is “significantly better health scores”.

Q: And the “Viremia versus vehicle only group” value (DENV-2 D2Y98P; Day 6 pi, 1000 mg/kg loading, 500 mg/kg BID 7 days oral, p=0.000014 by t-test)?
A: Its value is “significantly lower than the vehicle only group”.

Q: And the “weight loss versus vehicle control mice” value (DENV-2 D2Y98P; Days 5, 7 and 8 pi, p<0.001 by t-test)?
A: Its value is “significantly reduced weight loss”.

Q: What about the “spleen viral load versus control group” value (DENV-2 D2Y98P; by Day 7 pi) of the same compound?
A: The value was “not statistically different”.

Q: What about the Viremia (DENV-2 D2Y98P; by Day 8 pi, virus still measurable in all surviving controls, p=0.0045) of the same compound?
A: Its Viremia is “cleared in all treated animals”.

Q: And the “survival (Kaplan-Meier) versus vehicle control group” value (DENV-2 D2Y98P; p=0.0004, Mantel-Cox log-rank test)?
A: The value was “significantly improved the survival”.

Q: And the “Headache, subjects reporting” value [5, 7]?
A: Its value is 1.

Q: What about the “Nausea, subjects reporting” value [5, 7] of the same compound?
A: Its value is 1.

Q: And the “Vomiting, subjects reporting” value [5, 7]?
A: The value was 1.

Q: What about the “Headache, subjects reporting” value [5, 8] of the same compound?
A: The value was 0.

Q: What about the “Nausea, subjects reporting” value [5, 8] of the same compound?
A: The value was 0.

Q: What about the “Vomiting, subjects reporting” value [5, 8] of the same compound?
A: The value was 0.

Q: What about the “Headache, subjects reporting” value [5, 9] of the same compound?
A: The value was 0.

Q: What about the “Nausea, subjects reporting” value [5, 9] of the same compound?
A: Its value is 0.

Q: What about the “Vomiting, subjects reporting” value [5, 9] of the same compound?
A: Its value is 0.

Q: And the “Headache, subjects reporting” value ([5]; SAD 250 mg fasting, 6 patients)?
A: The value was 0.

Q: What about the “Nausea, subjects reporting” value ([5]; SAD 250 mg fasting, 6 patients) of the same compound?
A: Its value is 0.

Q: And the “Vomiting, subjects reporting” value ([5]; SAD 250 mg fasting, 6 patients)?
A: Its value is 0.

Q: What about the “Headache, subjects reporting” value ([5]; SAD 500 mg fasting, 7 patients) of the same compound?
A: The value was 2.

Q: What about the “Nausea, subjects reporting” value ([5]; SAD 500 mg fasting, 7 patients) of the same compound?
A: The value was 0.

Q: What about the “Vomiting, subjects reporting” value ([5]; SAD 500 mg fasting, 7 patients) of the same compound?
A: Its value is 0.

Q: What about the “Headache, subjects reporting” value ([5]; SAD 500 mg fed, 7 patients) of the same compound?
A: Its value is 4.

Q: And the “Nausea, subjects reporting” value ([5]; SAD 500 mg fed, 7 patients)?
A: Its value is 1.

Q: And the “Vomiting, subjects reporting” value ([5]; SAD 500 mg fed, 7 patients)?
A: The value was 0.

Q: And the “Headache, subjects reporting” value [5, 10]?
A: Its value is 1.

Q: What about the “Nausea, subjects reporting” value [5, 10] of the same compound?
A: The value was 1.

Q: What about the “Vomiting, subjects reporting” value [5, 10] of the same compound?
A: The value was 1.

Q: What about the “Headache, subjects reporting” value [5, 11] of the same compound?
A: Its value is 0.

Q: What about the “Nausea, subjects reporting” value [5, 11] of the same compound?
A: The value was 0.

Q: What about the “Vomiting, subjects reporting” value [5, 11] of the same compound?
A: The value was 0.

Q: And the “Headache, subjects reporting” value [5, 12]?
A: Its value is 2.

Q: What about the “Nausea, subjects reporting” value [5, 12] of the same compound?
A: The value was 1.

Q: What about the “Vomiting, subjects reporting” value [5, 12] of the same compound?
A: The value was 2.

Q: What about the tolerability ([5]; healthy subjects, SAD 250-1500 mg and MAD cohorts, oral) of the same compound?
A: The tolerability was “well tolerated”.

Q: What about the “serious adverse events or discontinuations due to adverse events” value ([5]; healthy subjects, SAD and MAD cohorts) of the same compound?
A: The value was “no serious adverse events or discontinuations due to adverse events were reported”.

Q: And the pharmacokinetic ethnic sensitivity [6]?
A: Its pharmacokinetic ethnic sensitivity is “absence of pharmacokinetic ethnic sensitivity”.
